The source of these data is patent US20090117083A1, “IMMUNOMODULATORY ALKALOIDS” (M N L PHARMA LIMITED, priority 2004, published 2009).

Where two headings read alike, the source gives them in different places.

Experiment [1] addresses T1, α-D-glucosidase (Oryza sativa subsp. japonica, UniProt Q653V7).
T1 construct: purchased Sigma
The experiment can be described thus: Glycosidase inhibition: α-D-glucosidase, rice. The class given is biochemical, rice (Oryza sativa). The following applies: 1 mg/ml. The method, then:
(§1) All enzymes were purchased from Sigma, as were the appropriate p-nitrophenyl substrates. Assays were carried out in microtitre plates. Enzymes were assayed in 0.1M citric acid/0.2M di-sodium hydrogen phosphate (McIlvaine) buffers at the optimum pH for the enzyme. All assays were carried out at 20° C. For screening assays the incubation assay consisted of 10 μl of enzyme solution, 10 μl of inhibitor solution (made up in water) and 50 μl of the appropriate 5 mM p-nitrophenyl substrate (3.57 mM final conc.) made up in McIlvaine buffer at the optimum pH for the enzyme.
(§2) The reactions were stopped with 0.4M glycine (pH 10.4) during the exponential phase of the reaction, which was determined at the beginning of the assay using blanks with water, which were incubated for a range of time periods to measure the reaction rate using 5 mM substrate solution. Endpoint absorbances were read at 405 nm with a Biorad microtitre plate reader (Benchmark). Water was substituted for the inhibitors in the blanks.

The test system of experiment [2] is α-D-glucosidase. The experiment can be described thus: Glycosidase inhibition: α-D-glucosidase, Bacillus. The class given is biochemical, Bacillus stearothermophilus. The following applies: 1 mg/ml. On the procedure: as §1, §2
For a further experiment, the system named is β-D-glucosidase. Description: Glycosidase inhibition: β-D-glucosidase, almond. The class given is biochemical, Almonds (Prunus sp.). The following applies: 1 mg/ml. On the procedure: as §1, §2
The target of a further experiment is T2, α-D-galactosidase (Coffea arabica, UniProt Q42656).
T2 construct: purchased Sigma
T2 sequence (Q42656 16-378): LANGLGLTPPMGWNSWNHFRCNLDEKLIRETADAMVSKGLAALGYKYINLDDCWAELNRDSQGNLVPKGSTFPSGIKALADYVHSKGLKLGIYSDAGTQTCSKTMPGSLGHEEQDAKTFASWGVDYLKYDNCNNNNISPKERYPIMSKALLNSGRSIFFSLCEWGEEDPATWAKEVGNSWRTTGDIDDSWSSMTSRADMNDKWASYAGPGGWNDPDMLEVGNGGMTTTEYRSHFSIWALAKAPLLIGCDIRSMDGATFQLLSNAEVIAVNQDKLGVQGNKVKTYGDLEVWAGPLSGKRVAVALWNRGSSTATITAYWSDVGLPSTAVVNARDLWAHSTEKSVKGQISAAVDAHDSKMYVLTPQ
Description: Glycosidase inhibition: α-D-galactosidase. The class given is biochemical, Green coffee beans (Coffea sp.). The method, then:
as §1, §2

The target in another experiment is T3, α-L-fucosidase (Bos taurus, UniProt Q2KIM0).
T3 construct: purchased Sigma
T3 sequence (Q2KIM0 23-468): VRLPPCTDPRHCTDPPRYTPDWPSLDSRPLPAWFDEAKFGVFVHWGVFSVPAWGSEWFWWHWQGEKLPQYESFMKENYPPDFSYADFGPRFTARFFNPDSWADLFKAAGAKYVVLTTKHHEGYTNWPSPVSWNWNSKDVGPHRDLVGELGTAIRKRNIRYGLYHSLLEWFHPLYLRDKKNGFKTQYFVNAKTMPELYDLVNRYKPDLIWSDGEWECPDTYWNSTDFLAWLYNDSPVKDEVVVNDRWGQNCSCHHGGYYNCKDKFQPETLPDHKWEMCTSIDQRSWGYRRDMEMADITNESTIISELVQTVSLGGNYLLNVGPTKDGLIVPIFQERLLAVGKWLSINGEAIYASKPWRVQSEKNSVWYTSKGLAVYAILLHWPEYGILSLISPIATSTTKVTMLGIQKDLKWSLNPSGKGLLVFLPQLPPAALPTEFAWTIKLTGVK
The experiment can be described thus: Glycosidase inhibition: α-L-fucosidase. The class given is biochemical, Bovine. Particulars: 1 mg/ml. On the procedure: as §1, §2

The next experiment deals with Naringinase. The experiment can be described thus: Glycosidase inhibition: Naringinase. The class given is biochemical, Penecillium decumbens. The following applies: 1 mg/ml. On the procedure: as §1, §2
For experiment [3], the system named is N-acetyl-β-D-glucosaminidase. Description: Glycosidase inhibition: N-acetyl-β-D-glucosaminidase. The class given is biochemical, Bovine. The following applies: 1 mg/ml. On the procedure: as §1, §2
The subject of another experiment is B16-F10 tumour cells. The experiment can be described thus: Control of lung metastasis in mice (B16-F10). The class given is in vivo, C57/bl6 mice. Particulars: 50 mg/kg s/c on days 2 and 4; lungs on day 14. The method, then: Mice (C57/bl6 under i/p ketamine anaesthesia) were challenged i/v (tail vein) with 5×10^4 B16-F10 tumour cells in a final volume of 100 μl per mouse on day 0. Test compounds (50 mg/kg in 200 μl sterile non-pyrogenic saline) were administered sic (right flank) on days 2 and 4. On day 14 the mice were sacrifices and the lungs dissected and stained in Indian ink solution (150 ml bidistilled water, 30 ml India Ink, 4 drops NH4OH) for 10 minutes then fixed for at least 24 hr in Fakete's solution (90 ml 37% formaldehyde, 900 ml 70% EtOH and 45 ml glacial acetic acid). The metastases in the stained and fixed lungs could then be visualized, counted and photographed.

Experiment [4] has as its target T4, α-D-glucosidase (Saccharomyces cerevisiae, UniProt P53341).
T4 construct: purchased Sigma
Description: Glycosidase inhibition (p-nitrophenyl substrate): α-D-glucosidase, yeast. The following applies: 1 mg/ml; read-out: % inhibition, α-gluc (yeast). The class given is biochemical, Saccharomyces cerevisiae (Baker's yeast). The method, then: as §1, §2

The test system of another experiment is β-D-galactosidase. Description: Glycosidase inhibition: β-D-galactosidase. The class given is biochemical, Bovine. Particulars: 1 mg/ml. The method, then:
as §1, §2

The target of the next experiment is T5, α-D-mannosidase (Canavalia ensiformis, UniProt C0HJB3).
T5 construct: purchased Sigma
T5 sequence (C0HJB3 whole entry): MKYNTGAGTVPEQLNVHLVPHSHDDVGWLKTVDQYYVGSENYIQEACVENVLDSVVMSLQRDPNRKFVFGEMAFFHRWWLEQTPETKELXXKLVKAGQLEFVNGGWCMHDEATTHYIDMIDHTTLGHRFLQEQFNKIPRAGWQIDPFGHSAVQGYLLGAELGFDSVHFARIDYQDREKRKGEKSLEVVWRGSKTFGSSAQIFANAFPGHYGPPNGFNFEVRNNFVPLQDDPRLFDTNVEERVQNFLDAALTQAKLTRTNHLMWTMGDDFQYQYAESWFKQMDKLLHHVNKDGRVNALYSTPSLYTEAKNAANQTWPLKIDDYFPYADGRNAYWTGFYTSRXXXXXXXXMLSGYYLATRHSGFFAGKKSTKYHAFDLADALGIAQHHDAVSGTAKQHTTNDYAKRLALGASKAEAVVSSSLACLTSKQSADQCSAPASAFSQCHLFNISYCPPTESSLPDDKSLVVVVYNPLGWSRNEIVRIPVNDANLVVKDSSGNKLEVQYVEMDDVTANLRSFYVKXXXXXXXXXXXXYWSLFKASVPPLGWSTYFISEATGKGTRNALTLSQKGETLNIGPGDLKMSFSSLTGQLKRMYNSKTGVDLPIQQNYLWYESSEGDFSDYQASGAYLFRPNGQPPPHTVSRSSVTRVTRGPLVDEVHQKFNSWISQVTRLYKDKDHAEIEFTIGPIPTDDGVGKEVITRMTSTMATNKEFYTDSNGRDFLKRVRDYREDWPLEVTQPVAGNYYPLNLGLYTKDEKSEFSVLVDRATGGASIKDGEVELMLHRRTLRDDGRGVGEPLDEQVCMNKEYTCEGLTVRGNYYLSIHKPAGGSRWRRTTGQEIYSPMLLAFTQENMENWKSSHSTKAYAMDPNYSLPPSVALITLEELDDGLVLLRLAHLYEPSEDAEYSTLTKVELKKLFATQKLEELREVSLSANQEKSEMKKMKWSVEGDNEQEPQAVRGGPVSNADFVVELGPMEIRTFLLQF
The experiment can be described thus: Glycosidase inhibition: α-D-mannosidase. The class given is biochemical, Jack beans (Canavalia ensiformis). On the procedure:
All enzymes were purchased from Sigma, as were the appropriate p-nitrophenyl substrates. Assays were carried out in microtitre plates. Enzymes were assayed in 0.1M citric acid/0.2M di-sodium hydrogen phosphate (McIlvaine) buffers at the optimum pH for the enzyme. All assays were carried out at 20° C.
Endpoint absorbances were read at 405 nm with a Biorad microtitre plate reader (Benchmark). Water was substituted for the inhibitors in the blanks.

In the next experiment the test system is dendritic cells. Description: Induction of IL-12 secretion in dendritic cells (ELISA). The class given is cell-based, BALB/c mice. The following applies: 50 μg/ml. Background: An ELISA detects its analyte on a solid surface through an enzyme-linked reagent.
A further experiment has as its system B16G/F10 melanoma cells. The experiment can be described thus: B16/F10 melanoma lung colonies in mice. The class given is in vivo, C57BL/6 mice. On the procedure:
There were 5 treatment groups in the study, with 6 mice arbitrarily allocated to each group. The treatment groups were as follows:
The dose volume was the daily intake for all animals. Test substances were administered to mice in Groups 2, 3, 4 and 5, as solutions in sterile water for 41 h 32 min prior to tumour cell injection (Day 0 is the day of tumour cell injection).
Mice were injected intravenously, via a tail vein, with 0.1 ml of a suspension of B16G/F10 melanoma cells (approximately 1×10^5 cells/mouse) on Day 0.
All dosing solutions were prepared on the first day of dosing (Day −2) and were kept at room temperature.
Mice: Female C57BL/6 mice were supplied and delivered by Charles River UK Limited. The animals were approximately 6-8 weeks of age on arrival. The animals were acclimatized for 29 days prior to the start of the study, and the body weights at the start of dosing were in the range 18-23 g. During the study, the animals were housed in groups of up to 6 in pediatric filter-topped cages with sawdust bedding (autoclaved for sterility). The room and cages were cleaned at regular intervals each week to maintain hygiene. The mice were fed an expanded rodent diet of RM1(E) SQC (batch number 3822; Special Diets Services, Witham, UK) ad libitum and allowed access to sterilized water (N.V. Nutricia, Zoetermeer, The Netherlands). For Groups 2, 3, 4 and 5, the drinking water also contained the appropriate level of test substance for the duration of the dosing period. […] During the acclimatization and study period the temperature range in the rooms was 18-22° C. and the humidity range was 44-79%.
Tumour challenge: B18F10 murine tumour cells (Shrayer D, Bogaars H. Hearing V. J. Maizel A. & Wanebo H. Further characterization of a clinically relevant model of melanoma metastasis and an effective vaccine. Cancer Immunology, Immunotherapy 1995: 40; 277-282) were harvested from sub-confluent cultures growing in vitro, using minimum trypsination. They were washed in sterile phosphate buffered saline (PBS) and the number of viable cells determined. Cells were resuspended in sterile PBS at a concentration of […]. The mice were intravenously injected, via a tail vein, with 0.1 ml of cell suspension (i.e. approximately 1×10^5 cells/mouse) on Day 0. The mice were examined daily for signs of laboured breathing or distress due to extensive metastatic disease. Mice were exposed to the appropriate test substance for 41 h 32 min prior to tumour cell injection (from Day −2 to Day 0). Following tumour cell implant, the test substances were removed, and animals in all groups received drinking water alone for the remainder of the study.
Sampling and analysis: The animals were terminated on Day 21 (21 days after injection of the tumour cells). Blood samples were taken from 3 mice from each group on the day of termination. Animals were anaesthetized with carbon dioxide and blood samples of maximal volume taken by cardiac puncture and collected in plain tubes. Samples were left to clot at room temperature for a minimum of 1 h prior to serum removal, Serum samples were stored at approximately −70° C. prior to analysis. Immediately after performing the bleeds, the spleens were removed from the 3 selected mice. The spleens from these mice were pooled in a petri dish with approximately 3-5 ml of RPMI 1640 tissue culture medium (batch number 3092202; Invitrogen, Paisley, UK) containing 0.52% penicillin/streptomycin (Pen/Strep; batch number 44K2412; Sigma Aldrich, Poole, UK) prior to splenocyte isolation. The spleens from each group were placed in a glass homogeniser with an additional 10-15 ml of medium and homogenised until opaque. The suspension was then placed in a 50 ml centrifuge tube. On occasions when there was significant cell debris, this was allowed to settle before removing the suspension and placing in a fresh tube. The homogenate was then centrifuged at approximately 200×‘g’ for 5 min at approximately 4° C.

T1 sequence (Q653V7 34-885): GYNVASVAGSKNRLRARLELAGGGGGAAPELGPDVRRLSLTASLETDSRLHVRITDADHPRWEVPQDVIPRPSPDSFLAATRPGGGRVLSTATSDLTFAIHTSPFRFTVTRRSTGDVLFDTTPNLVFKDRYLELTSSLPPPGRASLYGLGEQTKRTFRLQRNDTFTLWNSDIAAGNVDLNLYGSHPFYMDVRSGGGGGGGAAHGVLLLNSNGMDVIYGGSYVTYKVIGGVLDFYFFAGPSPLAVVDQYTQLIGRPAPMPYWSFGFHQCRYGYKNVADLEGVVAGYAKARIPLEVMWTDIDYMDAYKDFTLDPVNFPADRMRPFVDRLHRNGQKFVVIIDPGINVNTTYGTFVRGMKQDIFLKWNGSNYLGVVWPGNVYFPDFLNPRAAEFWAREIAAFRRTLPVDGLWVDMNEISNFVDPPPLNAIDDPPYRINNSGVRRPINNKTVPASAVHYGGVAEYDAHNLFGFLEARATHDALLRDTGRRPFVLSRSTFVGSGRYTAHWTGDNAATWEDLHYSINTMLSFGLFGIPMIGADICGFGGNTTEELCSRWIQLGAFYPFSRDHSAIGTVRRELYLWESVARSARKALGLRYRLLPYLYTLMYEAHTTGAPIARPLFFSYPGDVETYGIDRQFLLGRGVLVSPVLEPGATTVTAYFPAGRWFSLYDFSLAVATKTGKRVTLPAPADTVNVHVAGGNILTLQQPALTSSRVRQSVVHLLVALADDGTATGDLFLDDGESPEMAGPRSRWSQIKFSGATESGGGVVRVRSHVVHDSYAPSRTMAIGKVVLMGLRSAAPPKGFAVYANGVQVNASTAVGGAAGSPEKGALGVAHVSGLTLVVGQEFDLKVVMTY
T4 sequence (P53341 whole entry): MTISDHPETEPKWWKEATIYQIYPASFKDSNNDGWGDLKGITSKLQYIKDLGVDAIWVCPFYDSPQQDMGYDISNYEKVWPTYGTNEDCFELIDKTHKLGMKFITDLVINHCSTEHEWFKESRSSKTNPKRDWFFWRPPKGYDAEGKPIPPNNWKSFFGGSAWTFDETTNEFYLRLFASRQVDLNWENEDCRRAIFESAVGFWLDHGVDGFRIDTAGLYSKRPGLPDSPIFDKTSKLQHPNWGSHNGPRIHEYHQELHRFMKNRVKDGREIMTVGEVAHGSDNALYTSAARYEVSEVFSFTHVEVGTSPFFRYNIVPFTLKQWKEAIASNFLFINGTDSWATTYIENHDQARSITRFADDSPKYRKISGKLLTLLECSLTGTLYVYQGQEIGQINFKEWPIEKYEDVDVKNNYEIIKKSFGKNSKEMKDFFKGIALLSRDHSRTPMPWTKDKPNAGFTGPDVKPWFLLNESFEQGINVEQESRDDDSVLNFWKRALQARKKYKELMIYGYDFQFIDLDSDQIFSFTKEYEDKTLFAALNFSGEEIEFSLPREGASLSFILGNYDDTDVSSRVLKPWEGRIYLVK

Take `OC[C@H]1[C@@H](O)[C@H](O)[C@H]2[C@H](O)[C@@H](O)CN21` [3-epi-casuarine (14), 3-epi-casuarine]: the inhibition (as a rule, the drop in the measured response relative to a control, in per cent) at 1000 µg/mL on α-D-glucosidase [1] (read-out: % inhibition, gluc (rice)) was 13%; at α-D-galactosidase (read-out: % inhibition, galactosidase), 4%; at α-L-fucosidase (read-out: % inhibition, fucosidase) it was -2%. Further, the “% inhibition, gluc (Bacillus)” value in the experiment on α-D-glucosidase [2] is given as 12%. In the experiment on β-D-glucosidase, the “% inhibition, glucosidase” value is given as 56%. Besides, the “% inhibition, Naringinase” value with Naringinase came to 21%. For the same molecule, the “% inhibition, N-acetyl-β-gluc” value in experiment [3] was −1%. Besides, the Metastatic morphology entry in the experiment with B16-F10 tumour cells is “Metastasis restricted to apical tip of lung”.
Consider `OCCN1[C@H](CO)[C@@H](O)[C@H](O)[C@H]1CO` [N-hydroxyethyl DMDP, N-hydroxyethyl-2,5-dihydroxymethyl-3,4-dihydroxypyrrolidine], for which the inhibition at 1000 µg/mL at α-D-glucosidase [4] was 56%; at α-D-glucosidase [1] (read-out: % inhibition, α-gluc (rice)), 43%; at α-D-galactosidase (1 mg/ml, read-out: % inhibition, α-galactosidase), 7%; at α-D-mannosidase (read-out: % inhibition, α-mannosidase), 11%; on α-L-fucosidase (read-out: % inhibition, α-fucosidase) it was -4%. Further, the “% inhibition, α-gluc (Bacillus)” value with α-D-glucosidase [2] is 85%. The “% inhibition, β-glucosidase” value with β-D-glucosidase came to 64%. For the same molecule, in the experiment on β-D-galactosidase, the “% inhibition, β-galactosidase” value worked out at 73%. In the experiment on Naringinase, the “% inhibition, Naringinase” value stood at 22%. The “% inhibition, N-acetyl-β-gluc” value in [3] worked out at 13%. The Metastatic morphology entry with B16-F10 tumour cells is “Metastasis restricted to apical tip of lung”.
Turning to `O[C@H]1[C@H]2[C@H](O)CCCN2C[C@H]1O` [Swainsonine (4), Swainsonine, reference compound], the “induction of IL-12 secretion” value in the experiment with dendritic cells is reported as “failed to induce IL-12 secretion”. At α-D-mannosidase (read-out: % inhibition, mannosidase), the inhibition at 1000 µg/mL amounted to 74%. The “Colony Count” value with B16G/F10 melanoma cells (3 μg/ml in drinking water before tumour cell injection, Day 21, mean ± s.e.m.) worked out at 21.33 ± 4.11. For the same molecule, the “% Reduction” value with B16G/F10 melanoma cells (3 μg/ml in drinking water, versus vehicle) is recorded as 69%.
